Laboratory results from patent publication US10906904B2, “ADO-resistant cysteamine analogs and uses thereof” (HORIZON ORPHAN LLC, priority 2015, dated 2021).
Where two headings read alike, the source gives them in different places.

Tests used:
human recombinant ADO = target: T1, human recombinant ADO (Homo sapiens, UniProt Q96SZ5); format: in vitro ADME
T1 sequence (Q96SZ5 1-270): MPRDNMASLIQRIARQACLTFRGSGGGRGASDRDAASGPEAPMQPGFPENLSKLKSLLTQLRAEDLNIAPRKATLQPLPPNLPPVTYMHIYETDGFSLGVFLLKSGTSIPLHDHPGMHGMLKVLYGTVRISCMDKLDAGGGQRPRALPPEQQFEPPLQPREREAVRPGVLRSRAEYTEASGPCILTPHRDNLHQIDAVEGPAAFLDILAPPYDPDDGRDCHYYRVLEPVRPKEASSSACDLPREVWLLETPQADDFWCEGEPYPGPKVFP
Experimental: The rate of ADO metabolism was determined by incubating 15 mM test compound with 60 μg/ml human recombinant ADO and 20 nM MitoXpress® O2-sensitive fluorescent probe (Luxcel) at 37° C. in assay buffer/salt in a sealed assay chamber. The initial rate of fluorescence (excitation λ380 nm and emission λ650 nm) increase was used to measure ADO-dependent oxygen depletion activity. The ability of ADO to metabolize compounds and concomitantly consume oxygen was expressed relative to that of 15 mM cysteamine.

[1] = test system: cystinotic human fibroblasts; assay: Cystine depletion assay; format: cell-based; settings: for Emax: Homo sapiens, Fibroblast, 1 h, relative to cystine depletion by cysteamine (100%) at a similar concentration
Experimental: The ability of test compounds to deplete cystine from cystinotic human fibroblasts (Coriell) was determined by incubating compounds with cells for 60 min at 37° C., 95% (v/v) air/5% (v/v) CO2 in Minimal Essential Media Eagle. Treated cell samples were subsequently harvested, then homogenized to ensure plasma and lysosomal membrane disruption. Protein was removed by acid precipitation and cystine in the supernatant measured using LC-MS/MS and HILIC chromatography. Protein levels were determined and cystine levels reported as nM per mg/ml protein. Cystine levels after test compound treatment were expressed as a percentage of that of untreated control cells.
Compounds were assayed at a concentration of 50 μM or 100 μM according to the general methods described above.
Cystine depletion levels for the compounds are expressed in Table 4 as a percent relative to the cystine depletion achieved by cysteamine (c.f. cysteamine 100%) at a similar concentration.
Cystine depletion levels for each of the compounds in Table 5 are expressed as a percent relative to the cystine depletion achieved by cysteamine (c.f. cysteamine 100%) at a similar concentration.

St-HdhQ^111/111 cells = assay: Glutamate-induced neuronal excitotoxicity assay; format: cell-based; settings: STHdhQ111, 6 mM L-glutamate 24 hours, % of effect of 100 μM cysteamine; for viability at 10 µM: read-out: HdhQ^111/111 cell % survival (mean ± STD) Test Conc. 10 μM; for viability at 100 µM: read-out: HdhQ^111/111 cell % survival (mean ± STD) Test Conc. 100 μM
Experimental: The ability of test compounds to inhibit glutamate-induced excitotoxicity (neuroprotection) in St-HdhQ^111/111 cells was determined by incubating compounds with cells for 60 min at 33° C., 95% (v:v) air/5% (v:v) CO2 in Dulbecco's Modified Eagle Media. Following this, excitotoxicity was induced by the addition of 6 mM L-glutamate for 24 hours. Cell viability was assessed by measuring ATP levels using a luminescent-based CellTitre Glo assay (Promega). Compound neuroprotection (% cell survival) was expressed as a % of the effect recorded with 100 μM cysteamine (denoted as 100% cell survival).

Cystine reactivity assay = assay: Cystine reactivity assay; parameters: Cystine Reactivity: unit not given here; settings: for Cystine Reactivity Assay (30° C.) (%) Mean Value: percentage of 3 mM cysteamine
Experimental: Cystine reactivity was assessed by incubating 3 mM test compound with 100 nM BODIPY® FL L-Cystine (Life Tech.) at 30° C., pH 7.4 in phosphate buffer. […] Compound cystine reactivity was expressed as a percentage of that of 3 mM cysteamine.
Under resting conditions, the inherent fluorescence of BODIPY® FL L-cystine was very low due to the spatial proximity of the two BODIPY molecules causing quenching. Under chemical reaction (disruption of the S—S bond), the spatial distance was increased, the quenching lost, and measured fluorescence increased. Time (minutes) vs. fluorescence (relative fluorescence units—RFU) was plotted and linear regression analysis was performed to generate a slope value corresponding to the reaction rate in RFU/min and an R2 value.

[2] = Table 4, read-out: Cystine Depletion (%)
[3] = Table 5, read-out: Cystine Depletion (%) Mean Value

| SMILES | ADO Metabolism Assay (%) Mean Value (human recombinant ADO; human, 15 mM) | Emax [1, 2] | viability at 10 µM (St-HdhQ^111/111 cells) | viability at 100 µM (St-HdhQ^111/111 cells) | Emax [1, 3] | Cystine Reactivity Assay (30° C.) (%) Mean Value (Cystine reactivity assay; Table 5) | Cystine Reactivity Assay (30° C.) (%) Mean Value (Cystine reactivity assay; Table 4) | further results |
| --- | --- | --- | --- | --- | --- | --- | --- | --- |
| CS(=O)(=O)N1CCNC(CS)C1 (centres unmarked) [Compound 145694] | <25% | – | 2 ± 10% | 15 ± 15% | 0% | >90% | – | – |
| NC1CC(O)(CS)C1 (centres unmarked) [Compound 149610] | <25% | – | – | – | 15% | <50% | – | – |
| N[C@H]1C[C@H](S)C1 [Compound 42460] | <25% | 111% | 3 ± 5% | 95 ± 9% | – | – | 59-90% | – |
| CC(C)(S)CN [Compound 3a] | – | – | – | – | – | – | – | metabolism by ADO compared to cysteamine (in words) (human recombinant ADO): significantly reduced metabolism by ADO compared to cysteamine; ADO metabolism (human recombinant ADO; human, 15 mM): 14%; cystine depletion levels (in words) ([1]; compared to cysteamine): slightly decreased; Cystine depletion ([1]; compound at 50 μM or 100 μM, Tables 1-3): 32%; Cystine Reactivity (Cystine reactivity assay; Tables 1-3): 2284 |
| SC12CCN(CC1)CC2 [Compound 42389] | <25% | 36% | – | – | – | – | 50-90% | – |
| OCCC1(S)CNC1 [Compound 145695] | <25% | – | 8 ± 10% | 74 ± 10% | 0% | >90% | – | – |
| C[C@H]1CC[C@H](S)CN1 [Compound 42613] | <25% | 109% | – | – | – | – | >90% | – |
| SC1CC2CCC(C1)N2 (centres unmarked) [Compound 42494] | <25% | 88% | 0% | 28 ± 17% | – | – | 59-90% | – |
| CCN(CC)C(=S)SSC(=S)N(CC)CC [Compound 981] | <25% | – | – | – | 25% | <50% | – | – |
| CC(C)(C)N1CCC(S)CC1 [Compound 145584] | <25% | – | – | – | 0% | >90% | – | – |
| N[C@H]1C[C@@H](S)C1 [Compound 42457] | <25% | 108% | 6 ± 5% | 91 ± 6% | 77% | 50-90% | 59-90% | – |
| CCN1CCCC1 [Compound 145611] | <25% | – | 24 ± 13% | 94 ± 8% | 9% | <50% | – | – |
| SC1CC2(CNC2)C1 [Compound 42611] | <25% | 55% | – | – | – | – | >90% | – |
| SCc1ccccn1 [Compound 42213] | >75% | 0% | – | – | – | – | >90% | – |
| CC(CS)Cc1ccccc1 (centres unmarked) [Compound 2403] | <25% | – | – | – | 19% | <50% | – | – |
| NC1CC(S)C1 (centres unmarked) [Compound 42209] | <25% | 99% | – | – | – | – | 59-90% | – |
| O=S(=O)([O-])CCS.[Na+] [Compound 145566] | – | – | – | – | 16% | <50% | – | ADO Metabolism Assay (%) Mean Value (human recombinant ADO; Table 5, relative to 15 mM cysteamine): <25% |
| NCCCNCCS [Compound 145564] | 25-75% | – | – | – | 36% | >90% | – | – |

The next lines start with results.

| ADO Metabolism Assay (%) Mean Value (human recombinant ADO; human, 15 mM) | SMILES | Emax [1, 2] | viability at 10 µM (St-HdhQ^111/111 cells) | viability at 100 µM (St-HdhQ^111/111 cells) | Emax [1, 3] | Cystine Reactivity Assay (30° C.) (%) Mean Value (Cystine reactivity assay; Table 5) | Cystine Reactivity Assay (30° C.) (%) Mean Value (Cystine reactivity assay; Table 4) | further results |
| --- | --- | --- | --- | --- | --- | --- | --- | --- |
| <25% | C[C@H]1CNCC[C@@H]1S [Compound 42614] | 117% | 2 ± 6% | 59 ± 12% | – | – | – | – |
| <25% | SC[C@H]1CCCCN1 [Compound 145590] | – | 14 ± 7% | 90 ± 11% | 104% | >90% | – | – |
| <25% | S[C@H]1CCCNC1 [Compound 42247] | 96% | 5 ± 8% | 84 ± 13% | – | – | >90% | – |
| <25% | S[C@@H]1CCCNC1 [Compound 42248] | 103% | 2 ± 7% | 81 ± 6% | – | – | >90% | – |
| <25% | SC1CCCCNC1 (centres unmarked) [Compound 42345] | 50% | – | – | – | – | >90% | – |
| <25% | C[C@@H]1CNCC[C@@H]1S [Compound 42615] | 106% | – | – | – | – | <50% | – |
| <25% | SCC1CCCNC1 (centres unmarked) [Compound 145588] | – | 9 ± 9% | 98 ± 5% | 31% | >90% | – | – |
| <25% | SCC1CCNCC1 [Compound 145586] | – | 9 ± 6% | 89 ± 9% | 21% | 50-90% | – | – |
| <25% | SCC1COCCN1 (centres unmarked) [Compound 145591] | – | – | – | 61% | 50-90% | – | – |
| <25% | CCOC(=O)C1(S)CCCNC1 (centres unmarked) [Compound 42493] | 74% | 6 ± 10% | 87 ± 10% | – | – | 50-90% | – |
| <25% | OC1(CS)CCNCC1 [Compound 145610] | – | 11 ± 8% | 87 ± 10% | 11% | <50% | – | – |
| <25% | NC1CCCC(S)C1 (centres unmarked) [Compound 145693] | – | – | – | 81% | 50-90% | – | – |
| <25% | OCC1(S)CCCNC1 (centres unmarked) [Compound 150730] | – | – | – | 14% | >90% | – | – |
| <25% | N[C@H]1C[C@@H](CS)C1 [Compound 145587] | – | 52 ± 9% | 97 ± 7% | 13% | >90% | – | – |
| <25% | SC[C@H]1CCCN1 [Compound 42211] | 79% | 2 ± 9% | 84 ± 19% | – | – | >90% | – |
| <25% | S[C@@H]1CCNC1 [Compound 42617] | 101% | 7 ± 10% | 89 ± 7% | – | – | 59-90% | – |
| <25% | CC1(S)CCCNC1 (centres unmarked) [Compound 42388] | 97% | 5 ± 6% | 91 ± 5% | 63% | >90% | >90% | – |
